# Tests used:
# Assay type in all cases: in vivo
# Settings in all cases: evaluated after 13 days
# [1] = tested on: Setaria faberi (SETFA); experiment: Post-emergence Test (Table B2)
# Experimental: (§1) Seeds of a variety of test species are sown in standard soil in pots (Amaranthus palmeri (AMAPA), Setaria faberi (SETFA), Echinochloa crus-galli (ECHCG), (Amaranthus retroflexus (AMARE), Zea mays (ZEAMX), Ipomoea hederacea (IPOHE)). After 8 days cultivation under controlled conditions in a glasshouse (at 24° C./16° C., day/night; 14 hours light; 65% humidity), the plants are sprayed with an aqueous spray solution derived from the formulation of the technical active ingredient in acetone/water (50:50) solution containing 0.5% Tween 20 (polyoxyethelyene sorbitan monolaurate, CAS RN 9005-64-5). Compounds are applied at 1000 g/ha unless otherwise stated. The test plants are then grown in a glasshouse under controlled conditions in a glasshouse (at 24° C./16° C., day/night; 14 hours light; 65% humidity) and watered twice daily. After 13 days the test is evaluated for the percentage damage caused to the plant.
# [2] = tested on: Amaranthus palmeri (AMAPA); experiment: Post-emergence Test (Table B2)
# Experimental: as §1
# [3] = tested on: Amaranthus retroflexus (AMARE); experiment: Post-emergence Test (Table B2)
# Experimental: as §1
# [4] = tested on: Zea mays (ZEAMX); experiment: Pre-emergence Test (Table B1); set-up: key: 5=81-100%; 4=61-80%; 3=41-60%; 2=21-40%; 1=0-20%; 0=inactive
# [5] = tested on: Setaria faberi (SETFA); experiment: Pre-emergence Test (Table B1); set-up: key: 5=81-100%; 4=61-80%; 3=41-60%; 2=21-40%; 1=0-20%; 0=inactive
# [6] = tested on: Amaranthus retroflexus (AMARE); experiment: Pre-emergence Test (Table B1)
# [7] = tested on: Ipomoea hederacea (IPOHE); experiment: Pre-emergence Test (Table B1)
# [8] = tested on: Amaranthus palmeri (AMAPA); experiment: Pre-emergence Test (Table B1)
# [9] = tested on: Echinochloa crus-galli (ECHCG); experiment: Pre-emergence Test (Table B1); set-up: key: 5=81-100%; 4=61-80%; 3=41-60%; 2=21-40%; 1=0-20%; 0=inactive
# [10] = tested on: Zea mays (ZEAMX); experiment: Post-emergence Test (Table B2)
# Experimental: as §1
# [11] = tested on: Echinochloa crus-galli (ECHCG); experiment: Post-emergence Test (Table B2)
# Experimental: as §1
# [12] = tested on: Ipomoea hederacea (IPOHE); experiment: Post-emergence Test (Table B2)
# Experimental: as §1
# [13] = lower rate of 250 g per hectare
Compound,"percentage damage caused to the plant, SETFA ([1]; 1000 g/ha)","percentage damage caused to the plant, AMAPA ([2]; 1000 g/ha)","percentage damage caused to the plant, AMARE ([3]; 1000 g/ha)","percentage damage caused to the plant, ZEAMX ([4]; 1000 g/ha)","percentage damage caused to the plant, SETFA ([5]; 1000 g/ha)","percentage damage caused to the plant, AMARE ([6]; 1000 g/ha)","percentage damage caused to the plant, IPOHE ([7]; 1000 g/ha)","percentage damage caused to the plant, AMAPA ([8]; 1000 g/ha)","percentage damage caused to the plant, ECHCG ([9]; 1000 g/ha)","percentage damage caused to the plant, ZEAMX ([10]; 1000 g/ha)","percentage damage caused to the plant, ECHCG ([11]; 1000 g/ha)","percentage damage caused to the plant, IPOHE ([12]; 1000 g/ha)","percentage damage caused to the plant, SETFA [1, 13]","percentage damage caused to the plant, AMAPA [2, 13]","percentage damage caused to the plant, AMARE [3, 13]","percentage damage caused to the plant, ZEAMX [4, 13]","percentage damage caused to the plant, SETFA [5, 13]","percentage damage caused to the plant, AMARE [6, 13]","percentage damage caused to the plant, IPOHE [7, 13]","percentage damage caused to the plant, AMAPA [8, 13]",other results
"C=CCOC(=O)c1cc(-c2c(C)n(CC)c(-c3ccc(Cl)c(Cl)c3)c(C(=O)O)c2=O)c(F)cc1Cl [Compound 3, 5-(5-allyloxycarbonyl-4-chloro-2-fluoro-phenyl)-2-(3,4-dichlorophenyl)-1-ethyl-6-methyl-4-oxo-pyridine-3-carboxylic acid]",5 (5=81-100%),5 (5=81-100%),5 (5=81-100%),0,1 (1=0-20%),5 (5=81-100%),2 (2=21-40%),5 (5=81-100%),0,4 (4=61-80%),5 (5=81-100%),4 (4=61-80%),,,,,,,,,
"CC#CC(C)OC(=O)c1cc(-c2c(C)n(CC)c(-c3ccc(Cl)c(Cl)c3)c(C(=O)O)c2=O)c(F)cc1Cl (stereo not drawn) [Compound 22, 5-[4-chloro-2-fluoro-5-(1-methylbut-2-ynoxycarbonyl)phenyl]-2-(3,4-dichlorophenyl)-1-ethyl-6-methyl-4-oxo-pyridine-3-carboxylic acid]",,,,,,,,,,,,,5 (5=81-100%),5 (5=81-100%),5 (5=81-100%),1 (1=0-20%),1 (1=0-20%),5 (5=81-100%),1 (1=0-20%),5 (5=81-100%),"percentage damage caused to the plant, ECHCG [9, 13]: 1 (1=0-20%); percentage damage caused to the plant, ZEAMX [10, 13]: 3 (3=41-60%); percentage damage caused to the plant, ECHCG [11, 13]: 5 (5=81-100%); percentage damage caused to the plant, IPOHE [12, 13]: 5 (5=81-100%)"
"CCn1c(C)c(-c2cc(C(=O)OC3CC3)c(Cl)cc2F)c(=O)c(C(=O)O)c1-c1ccc(C#N)c(F)c1 [Compound 39, 5-[4-chloro-5-(cyclopropoxycarbonyl)-2-fluoro-phenyl]-2-(4-cyano-3-fluoro-phenyl)-1-ethyl-6-methyl-4-oxo-pyridine-3-carboxylic acid]",,,,,,,,,,,,,5 (5=81-100%),5 (5=81-100%),5 (5=81-100%),0,0,5 (5=81-100%),4 (4=61-80%),5 (5=81-100%),"percentage damage caused to the plant, ECHCG [9, 13]: 0; percentage damage caused to the plant, ZEAMX [10, 13]: 5 (5=81-100%); percentage damage caused to the plant, ECHCG [11, 13]: 4 (4=61-80%); percentage damage caused to the plant, IPOHE [12, 13]: 4 (4=61-80%)"
"CCn1c(C)c(-c2cc(C(=O)OC(C)C(F)(F)F)ccc2F)c(=O)c(C(=O)O)c1-c1ccc(Cl)c(Cl)c1 (stereo not drawn) [Compound 7, 2-(3,4-dichlorophenyl)-1-ethyl-5-[2-fluoro-5-(2,2,2-trifluoro-1-methyl-ethoxy)carbonyl-phenyl]-6-methyl-4-oxo-pyridine-3-carboxylic acid]",4 (4=61-80%),5 (5=81-100%),5 (5=81-100%),1 (1=0-20%),2 (2=21-40%),5 (5=81-100%),1 (1=0-20%),5 (5=81-100%),2 (2=21-40%),2 (2=21-40%),3 (3=41-60%),1 (1=0-20%),,,,,,,,,
